Converted amounts (≈) assume the structure as drawn. Read-outs that look alike come from different tables or passages of the source.
Legend:
Mtb 331/88 (i.e., H37Rv) = test: MIC, micro method in Šula's semisynthetic medium, drug-susceptible Mtb; assay type: cell-based, Mycobacterium tuberculosis; conditions: Mycobacterium tuberculosis, H37RV
[1] = test system: Mycobacterium avium 330/88; test: MIC, micro method in Šula's semisynthetic medium, M. avium; assay type: cell-based
[2] = test system: Mycobacterium kansasii 6509/96; test: MIC, micro method in Šula's semisynthetic medium, M. kansasii clinical isolate; assay type: cell-based; conditions: read-out: MIC M. kansasii 6509/96
HepG2 cells = test: Cytotoxicity on HepG2 cell line (CellTiter 96); assay type: cell-based, human; conditions: Homo sapiens, HepG2, 24 h, read-out: IC50 HepG2
[3] = 330/88, 336 h, read-out: MIC M. avium 330/88
[4] = 330/88, 504 h, read-out: MIC M. avium 330/88

Row | SMILES | MIC (Mtb 331/88 (i.e., H37Rv); 336 h, 14 days) [µM] | MIC (Mtb 331/88 (i.e., H37Rv); 504 h, 21 days) [µM] | MIC [1, 3] [µM] | MIC [1, 4] [µM] | MIC ([2]; 6509/96, 168 h) [µM] | MIC ([2]; 6509/96, 336 h) [µM] | MIC ([2]; 6509/96, 504 h) [µM] | IC50 (HepG2 cells) [µM] | MIC ([1]; 330/88, read-out: MIC M. avium) [µM]
1 | CNC(=O)NNC(=O)c1cc([N+](=O)[O-])cc([N+](=O)[O-])c1 [Compound 4a, 2-(3,5-Dinitrobenzoyl)-N-methylhydrazine-1-carboxamide] | > 32 | > 32 | 1000 (≈ 283 µg/mL) | 1000 (≈ 283 µg/mL) | 250 (≈ 70.8 µg/mL) | 500 (≈ 142 µg/mL) | 500 (≈ 142 µg/mL) | – | –
2 | CCNC(=O)NNC(=O)c1cc([N+](=O)[O-])cc([N+](=O)[O-])c1 [Compound 4b, 2-(3,5-Dinitrobenzoyl)-N-ethylhydrazine-1-carboxamide] | 32 (≈ 9.51 µg/mL) | > 32 | 1000 (≈ 297 µg/mL) | 1000 (≈ 297 µg/mL) | 64 (≈ 19 µg/mL) | 125 (≈ 37.2 µg/mL) | 125 (≈ 37.2 µg/mL) | – | –
3 | CCCNC(=O)NNC(=O)c1cc([N+](=O)[O-])cc([N+](=O)[O-])c1 [Compound 4c, 2-(3,5-Dinitrobenzoyl)-N-propylhydrazine-1-carboxamide] | 16 (≈ 4.98 µg/mL) | 16 (≈ 4.98 µg/mL) | 1000 (≈ 311 µg/mL) | 1000 (≈ 311 µg/mL) | 8 (≈ 2.49 µg/mL) | 16 (≈ 4.98 µg/mL) | 16 (≈ 4.98 µg/mL) | – | –
4 | CCCCNC(=O)NNC(=O)c1cc([N+](=O)[O-])cc([N+](=O)[O-])c1 [Compound 4d, N-Butyl-2-(3,5-dinitrobenzoyl)hydrazine-1-carboxamide] | 2 (≈ 0.651 µg/mL) | 2 (≈ 0.651 µg/mL) | 1000 (≈ 325 µg/mL) | 1000 (≈ 325 µg/mL) | 2 (≈ 0.651 µg/mL) | 4 (≈ 1.3 µg/mL) | 4 (≈ 1.3 µg/mL) | 198 | –
5 | CCCCCNC(=O)NNC(=O)c1cc([N+](=O)[O-])cc([N+](=O)[O-])c1 [Compound 4e, 2-(3,5-Dinitrobenzoyl)-N-pentylhydrazine-1-carboxamide] | 1 (≈ 0.339 µg/mL) | 1 (≈ 0.339 µg/mL) | 1000 (≈ 339 µg/mL) | 1000 (≈ 339 µg/mL) | 1 (≈ 0.339 µg/mL) | 1 (≈ 0.339 µg/mL) | 2 (≈ 0.679 µg/mL) | 134 | –
6 | CCCCCCNC(=O)NNC(=O)c1cc([N+](=O)[O-])cc([N+](=O)[O-])c1 [Compound 4f, 2-(3,5-Dinitrobenzoyl)-N-hexylhydrazine-1-carboxamide] | 1 (≈ 0.353 µg/mL) | 1 (≈ 0.353 µg/mL) | 250 (≈ 88.3 µg/mL) | 250 (≈ 88.3 µg/mL) | 1 (≈ 0.353 µg/mL) | 1 (≈ 0.353 µg/mL) | 1 (≈ 0.353 µg/mL) | 119 | 125 to 250 (≈ 44.2 to 88.3 µg/mL)
7 | CCCCCCCNC(=O)NNC(=O)c1cc([N+](=O)[O-])cc([N+](=O)[O-])c1 [Compound 4g, 2-(3,5-Dinitrobenzoyl)-N-heptylhydrazine-1-carboxamide] | 0.5 (≈ 0.184 µg/mL) | 0.5 (≈ 0.184 µg/mL) | 125 (≈ 45.9 µg/mL) | 250 (≈ 91.8 µg/mL) | 1 (≈ 0.367 µg/mL) | 1 (≈ 0.367 µg/mL) | 1 (≈ 0.367 µg/mL) | 117 | 125 to 250 (≈ 45.9 to 91.8 µg/mL)
8 | CCCCCCCCCCCCCCCCNC(=O)NNC(=O)c1cc([N+](=O)[O-])cc([N+](=O)[O-])c1 [Compound 4p, 2-(3,5-Dinitrobenzoyl)-N-hexadecylhydrazine-1-carboxamide] | 8 (≈ 3.95 µg/mL) | 16 (≈ 7.9 µg/mL) | > 1000 | > 1000 | 8 (≈ 3.95 µg/mL) | 16 (≈ 7.9 µg/mL) | 16 (≈ 7.9 µg/mL) | – | –
9 | CCCCCCCCCCCCCCCCCNC(=O)NNC(=O)c1cc([N+](=O)[O-])cc([N+](=O)[O-])c1 [Compound 4q, 2-(3,5-Dinitrobenzoyl)-N-heptadecylhydrazine-1-carboxamide] | 8 (≈ 4.06 µg/mL) | 16 (≈ 8.12 µg/mL) | > 500 | > 500 | 8 (≈ 4.06 µg/mL) | 16 (≈ 8.12 µg/mL) | 16 (≈ 8.12 µg/mL) | – | –
10 | CCCCCCCCCCCCCCCCCCNC(=O)NNC(=O)c1cc([N+](=O)[O-])cc([N+](=O)[O-])c1 [Compound 4r, 2-(3,5-Dinitrobenzoyl)-N-octadecylhydrazine-1-carboxamide] | 8 (≈ 4.17 µg/mL) | 16 (≈ 8.35 µg/mL) | > 1000 | > 1000 | 8 (≈ 4.17 µg/mL) | 16 (≈ 8.35 µg/mL) | 16 (≈ 8.35 µg/mL) | – | –
11 | CNc1nnc(-c2cc([N+](=O)[O-])cc([N+](=O)[O-])c2)o1 [Compound 5a, 5-(3,5-Dinitrophenyl)-N-methyl-1,3,4-oxadiazol-2-amine] | 8 (≈ 2.12 µg/mL) | 16 (≈ 4.24 µg/mL) | 500 (≈ 133 µg/mL) | 500 (≈ 133 µg/mL) | 16 (≈ 4.24 µg/mL) | 32 (≈ 8.49 µg/mL) | 32 (≈ 8.49 µg/mL) | – | –
12 | CCNc1nnc(-c2cc([N+](=O)[O-])cc([N+](=O)[O-])c2)o1 [Compound 5b, 5-(3,5-Dinitrophenyl)-N-ethyl-1,3,4-oxadiazol-2-amine] | 8 (≈ 2.23 µg/mL) | 16 (≈ 4.47 µg/mL) | > 1000 | > 1000 | 16 (≈ 4.47 µg/mL) | 32 (≈ 8.93 µg/mL) | 32 (≈ 8.93 µg/mL) | – | > 1000
13 | CCCNc1nnc(-c2cc([N+](=O)[O-])cc([N+](=O)[O-])c2)o1 [Compound 5c, 5-(3,5-Dinitrophenyl)-N-propyl-1,3,4-oxadiazol-2-amine] | 4 (≈ 1.17 µg/mL) | 4 (≈ 1.17 µg/mL) | > 500 | > 500 | 4 (≈ 1.17 µg/mL) | 8 (≈ 2.35 µg/mL) | 16 (≈ 4.69 µg/mL) | – | –
14 | CCCCCCCCCCCCCCCCNc1nnc(-c2cc([N+](=O)[O-])cc([N+](=O)[O-])c2)o1 [Compound 5p, 5-(3,5-Dinitrophenyl)-N-hexadecyl-1,3,4-oxadiazol-2-amine] | 8 (≈ 3.8 µg/mL) | 8 (≈ 3.8 µg/mL) | 8 (≈ 3.8 µg/mL) | 16 (≈ 7.61 µg/mL) | 2 (≈ 0.951 µg/mL) | 4 (≈ 1.9 µg/mL) | 8 (≈ 3.8 µg/mL) | – | –
15 | CCCCCCCCCCCCCCCCCNc1nnc(-c2cc([N+](=O)[O-])cc([N+](=O)[O-])c2)o1 [Compound 5q, 5-(3,5-Dinitrophenyl)-N-heptadecyl-1,3,4-oxadiazol-2-amine] | 32 (≈ 15.7 µg/mL) | > 32 | 32 (≈ 15.7 µg/mL) | 64 (≈ 31.3 µg/mL) | 8 (≈ 3.92 µg/mL) | 16 (≈ 7.83 µg/mL) | 32 (≈ 15.7 µg/mL) | – | –
16 | CCCCCCCCCCCCCCCCCCNc1nnc(-c2cc([N+](=O)[O-])cc([N+](=O)[O-])c2)o1 [Compound 5r, 5-(3,5-Dinitrophenyl)-N-octadecyl-1,3,4-oxadiazol-2-amine] | > 32 | > 32 | > 1000 | > 1000 | 64 (≈ 32.2 µg/mL) | 64 (≈ 32.2 µg/mL) | 64 (≈ 32.2 µg/mL) | – | > 1000
17 | O=[N+]([O-])c1cc(-c2nnc(NCc3ccccc3)o2)cc([N+](=O)[O-])c1 [Compound 7a, N-Benzyl-5-(3,5-dinitrophenyl)-1,3,4-oxadiazol-2-amine] | 0.125 (≈ 0.0427 µg/mL) | 0.25 (≈ 0.0853 µg/mL) | 4 (≈ 1.37 µg/mL) | 4 (≈ 1.37 µg/mL) | 0.5 (≈ 0.171 µg/mL) | 1 (≈ 0.341 µg/mL) | 1 (≈ 0.341 µg/mL) | – | –
18 | COc1ccc(CNc2nnc(-c3cc([N+](=O)[O-])cc([N+](=O)[O-])c3)o2)cc1 [Compound 7b, 5-(3,5-Dinitrophenyl)-N-(4-methoxybenzyl)-1,3,4-oxadiazol-2-amine] | ≤ 0.03 | ≤ 0.03 | 2 (≈ 0.743 µg/mL) | 2 (≈ 0.743 µg/mL) | ≤ 0.03 | ≤ 0.03 | ≤ 0.03 | – | –
19 | O=[N+]([O-])c1cc(-c2nnc(NCc3ccc(Cl)cc3)o2)cc([N+](=O)[O-])c1 [Compound 7c, N-(4-Chlorobenzyl)-5-(3,5-dinitrophenyl)-1,3,4-oxadiazol-2-amine] | 0.125 (≈ 0.047 µg/mL) | 0.125 (≈ 0.047 µg/mL) | 1 (≈ 0.376 µg/mL) | 2 (≈ 0.751 µg/mL) | 0.125 (≈ 0.047 µg/mL) | 0.125 (≈ 0.047 µg/mL) | 0.25 (≈ 0.0939 µg/mL) | – | –
20 | O=[N+]([O-])c1cc(-c2nnc(NCc3ccc(Cl)cc3Cl)o2)cc([N+](=O)[O-])c1 [Compound 7d, N-(2,4-Dichlorobenzyl)-5-(3,5-dinitrophenyl)-1,3,4-oxadiazol-2-amine] | 0.06 (≈ 0.0246 µg/mL) | 0.125 (≈ 0.0513 µg/mL) | 1 (≈ 0.41 µg/mL) | 1 (≈ 0.41 µg/mL) | 0.06 (≈ 0.0246 µg/mL) | 0.125 (≈ 0.0513 µg/mL) | 0.125 (≈ 0.0513 µg/mL) | – | –
21 | O=[N+]([O-])c1cc(-c2nnc(NCc3ccc(Br)cc3)o2)cc([N+](=O)[O-])c1 [Compound 7e, N-(4-Bromobenzyl)-5-(3,5-dinitrophenyl)-1,3,4-oxadiazol-2-amine] | 0.25 (≈ 0.105 µg/mL) | 0.25 (≈ 0.105 µg/mL) | 2 (≈ 0.84 µg/mL) | 4 (≈ 1.68 µg/mL) | 0.25 (≈ 0.105 µg/mL) | 0.5 (≈ 0.21 µg/mL) | 0.5 (≈ 0.21 µg/mL) | – | –
22 | COc1ccc(CNc2nnc(-c3cc([N+](=O)[O-])cc([N+](=O)[O-])c3)s2)cc1 [Compound 8b, 5-(3,5-Dinitrophenyl)-N-(4-methoxybenzyl)-1,3,4-thiadiazol-2-amine] | ≤ 0.03 | ≤ 0.03 | 4 (≈ 1.55 µg/mL) | 4 (≈ 1.55 µg/mL) | 0.06 (≈ 0.0232 µg/mL) | 0.06 (≈ 0.0232 µg/mL) | 0.125 (≈ 0.0484 µg/mL) | – | –
23 | O=[N+]([O-])c1cc(-c2nnc(NCc3ccc(Cl)cc3)s2)cc([N+](=O)[O-])c1 [Compound 8c, N-(4-Chlorobenzyl)-5-(3,5-dinitrophenyl)-1,3,4-thiadiazol-2-amine] | ≤ 0.03 | ≤ 0.03 | 2 (≈ 0.784 µg/mL) | 2 (≈ 0.784 µg/mL) | 0.06 (≈ 0.0235 µg/mL) | 0.125 (≈ 0.049 µg/mL) | 0.125 (≈ 0.049 µg/mL) | – | –
24 | O=[N+]([O-])c1cc(-c2nnc(NCc3ccc(Cl)cc3Cl)s2)cc([N+](=O)[O-])c1 [Compound 8d, N-(2,4-Dichlorobenzyl)-5-(3,5-dinitrophenyl)-1,3,4-thiadiazol-2-amine] | 0.125 (≈ 0.0533 µg/mL) | 0.125 (≈ 0.0533 µg/mL) | 2 (≈ 0.852 µg/mL) | 2 (≈ 0.852 µg/mL) | 0.25 (≈ 0.107 µg/mL) | 0.5 (≈ 0.213 µg/mL) | 0.5 (≈ 0.213 µg/mL) | – | –
25 | CCCCCCCCCCCCSc1nnc(-c2cc([N+](=O)[O-])cc([N+](=O)[O-])c2)o1 [Compound 10, 2-(3,5-Dinitrophenyl)-5-(dodecylthio)-1,3,4-oxadiazole] | 8 (≈ 3.49 µg/mL) | 8 (≈ 3.49 µg/mL) | 500 (≈ 218 µg/mL) | 500 (≈ 218 µg/mL) | 2 (≈ 0.873 µg/mL) | 4 (≈ 1.75 µg/mL) | 8 (≈ 3.49 µg/mL) | – | –
